According to PubChem BioAssay AID2060894 (Molecular Pharmacology Branch, DTP, NCI, 2025):

Tested on: K12877-001-R-J1-PDC complex spheroid viability
Experiment: Anticancer human tumor K12877-001-R-J1-PDC patient-derived lung adenocarcinoma cell line growth inhibition [RAS]
Settings: for IC50: curve of first compound; for viability, T/C: stronger effect = lower value
Method in brief: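 Multi-cell-type spheroids: tumor cells plus HUVEC endothelial cells and mesenchymal stem cells. RAS-pathway inhibitors were combined with targeted agents, each dosed in half-log steps down from clinical Cmax, or from 10 microM when Cmax was unknown.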
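Also: spheroids exposed to agents for one week before readout.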
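For viability, T/C in this document: tumour cells co-cultured with HUVEC and mesenchymal stem cells in spheroids.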

Molecule `CC1(C)CCC(Nc2ncc(C(F)(F)F)c(-c3c[nH]c4c(P(C)(C)=O)c(C#N)ccc34)n2)CN1` (centres undefined) + C#Cc1c(F)ccc2cc(O)cc(-c3ncc4c(N5CC6CCC(C5)N6)nc(OCC56CCCN5CC(F)C6)nc4c3F)c12 has an IC50 (second compound 0.0316 µM) of 55.5 nM, an IC50 (second compound 0.1 µM) of 34.6 nM and an IC50 (second compound 0.316 µM) of 55.9 nM. For the same molecule, the IC50 (second compound 1 µM) was 50.3 nM, the IC50 (second compound 3.16 µM) was 84.3 nM and the IC50 (second compound 10 µM) was 187 nM. The viability, T/C (second compound 0.0316 µM, first compound 0.000949 µM) was 93.6%, the viability, T/C (second compound 0.0316 µM, first compound 0.003 µM) was 83.7% and the viability, T/C (second compound 0.0316 µM, first compound 0.00949 µM) was 89.6%. It also gave a viability, T/C (second compound 0.0316 µM, first compound 0.03 µM) of 65.2%, a viability, T/C (second compound 0.0316 µM, first compound 0.0949 µM) of 37.2% and a viability, T/C (second compound 0.0316 µM, first compound 0.3 µM) of 32%. It also gave a viability, T/C (second compound 0.1 µM, first compound 0.000949 µM) of 97.6%, a viability, T/C (second compound 0.1 µM, first compound 0.003 µM) of 100% and a viability, T/C (second compound 0.1 µM, first compound 0.00949 µM) of 83.8%. The viability, T/C (second compound 0.1 µM, first compound 0.03 µM) was 52.3%, the viability, T/C (second compound 0.1 µM, first compound 0.0949 µM) was 34.5% and the viability, T/C (second compound 0.1 µM, first compound 0.3 µM) was 29.1%. The viability, T/C (second compound 0.316 µM, first compound 0.000949 µM) was 89.9%, the viability, T/C (second compound 0.316 µM, first compound 0.003 µM) was 92% and the viability, T/C (second compound 0.316 µM, first compound 0.00949 µM) was 87%. It also gave a viability, T/C (second compound 0.316 µM, first compound 0.03 µM) of 63.3%, a viability, T/C (second compound 0.316 µM, first compound 0.0949 µM) of 39% and a viability, T/C (second compound 0.316 µM, first compound 0.3 µM) of 32.9%. For the same molecule, the viability, T/C (second compound 1 µM, first compound 0.000949 µM) was 96.9%, the viability, T/C (second compound 1 µM, first compound 0.003 µM) was 87.5% and the viability, T/C (second compound 1 µM, first compound 0.00949 µM) was 104%. The viability, T/C (second compound 1 µM, first compound 0.03 µM) was 60.8%, the viability, T/C (second compound 1 µM, first compound 0.0949 µM) was 40% and the viability, T/C (second compound 1 µM, first compound 0.3 µM) was 33.6%. For the same molecule, the viability, T/C (second compound 3.16 µM, first compound 0.000949 µM) was 100%, the viability, T/C (second compound 3.16 µM, first compound 0.003 µM) was 93.6% and the viability, T/C (second compound 3.16 µM, first compound 0.00949 µM) was 86.6%. It also gave a viability, T/C (second compound 3.16 µM, first compound 0.03 µM) of 82.5%, a viability, T/C (second compound 3.16 µM, first compound 0.0949 µM) of 45.6% and a viability, T/C (second compound 3.16 µM, first compound 0.3 µM) of 39.9%. It also gave a viability, T/C (second compound 10 µM, first compound 0.000949 µM) of 99.8%, a viability, T/C (second compound 10 µM, first compound 0.003 µM) of 88.7% and a viability, T/C (second compound 10 µM, first compound 0.00949 µM) of 73.7%. The viability, T/C (second compound 10 µM, first compound 0.03 µM) was 72.9%, the viability, T/C (second compound 10 µM, first compound 0.0949 µM) was 56.9% and the viability, T/C (second compound 10 µM, first compound 0.3 µM) was 44.2%.
With `O=C(c1ccc(F)c(F)c1Nc1ccc(I)cc1F)N1CC(O)([C@@H]2CCCCN2)C1` + C=CC(=O)N1CCN(c2nc(OCC3CCCN3C)nc3c(F)c(-c4nc(N)cc(C)c4C(F)(F)F)c(Cl)cc23)C(C)C1 the IC50 (second compound 0.00316 µM) was > 1000 nM, the IC50 (second compound 0.01 µM) was > 1000 nM and the IC50 (second compound 0.0316 µM) was > 1000 nM. The IC50 (second compound 0.1 µM) was > 1000 nM, the IC50 (second compound 0.316 µM) was > 1000 nM and the IC50 (second compound 1 µM) was > 1000 nM. It also gave a viability, T/C (second compound 0.00316 µM, first compound 0.00316 µM) of 104%, a viability, T/C (second compound 0.00316 µM, first compound 0.01 µM) of 103% and a viability, T/C (second compound 0.00316 µM, first compound 0.0316 µM) of 89.5%. For the same molecule, the viability, T/C (second compound 0.00316 µM, first compound 0.1 µM) was 91.7%, the viability, T/C (second compound 0.00316 µM, first compound 0.316 µM) was 72.2% and the viability, T/C (second compound 0.00316 µM, first compound 1 µM) was 54.5%. For the same molecule, the viability, T/C (second compound 0.01 µM, first compound 0.00316 µM) was 94.5%, the viability, T/C (second compound 0.01 µM, first compound 0.01 µM) was 95% and the viability, T/C (second compound 0.01 µM, first compound 0.0316 µM) was 78.9%. It also gave a viability, T/C (second compound 0.01 µM, first compound 0.1 µM) of 90.7%, a viability, T/C (second compound 0.01 µM, first compound 0.316 µM) of 68.1% and a viability, T/C (second compound 0.01 µM, first compound 1 µM) of 58.3%. The viability, T/C (second compound 0.0316 µM, first compound 0.00316 µM) was 93%, the viability, T/C (second compound 0.0316 µM, first compound 0.01 µM) was 85.2% and the viability, T/C (second compound 0.0316 µM, first compound 0.0316 µM) was 77.5%. For the same molecule, the viability, T/C (second compound 0.0316 µM, first compound 0.1 µM) was 87.6%, the viability, T/C (second compound 0.0316 µM, first compound 0.316 µM) was 71.1% and the viability, T/C (second compound 0.0316 µM, first compound 1 µM) was 66.4%. For the same molecule, the viability, T/C (second compound 0.1 µM, first compound 0.00316 µM) was 85.2%, the viability, T/C (second compound 0.1 µM, first compound 0.01 µM) was 89.3% and the viability, T/C (second compound 0.1 µM, first compound 0.0316 µM) was 83.7%. The viability, T/C (second compound 0.1 µM, first compound 0.1 µM) was 82.2%, the viability, T/C (second compound 0.1 µM, first compound 0.316 µM) was 72.4% and the viability, T/C (second compound 0.1 µM, first compound 1 µM) was 55.4%. For the same molecule, the viability, T/C (second compound 0.316 µM, first compound 0.00316 µM) was 85.7%, the viability, T/C (second compound 0.316 µM, first compound 0.01 µM) was 83.3% and the viability, T/C (second compound 0.316 µM, first compound 0.0316 µM) was 84.7%. It also gave a viability, T/C (second compound 0.316 µM, first compound 0.1 µM) of 89.4%, a viability, T/C (second compound 0.316 µM, first compound 0.316 µM) of 72.4% and a viability, T/C (second compound 0.316 µM, first compound 1 µM) of 59%. The viability, T/C (second compound 1 µM, first compound 0.00316 µM) was 79.5%, the viability, T/C (second compound 1 µM, first compound 0.01 µM) was 79.3% and the viability, T/C (second compound 1 µM, first compound 0.0316 µM) was 78.1%. The viability, T/C (second compound 1 µM, first compound 0.1 µM) was 103%, the viability, T/C (second compound 1 µM, first compound 0.316 µM) was 75.3% and the viability, T/C (second compound 1 µM, first compound 1 µM) was 57.2%.
